Source: US5939404A, “Cancer metastasis inhibitor containing a streptococcus agalactiae Ia type or Ib type surface polysaccharide as a main ingredient” (NGK Insulators, Ltd., priority 1997, dated 1999)

Tests used:
[1] = system: adhesion between the cell-lined intravascular endothelial cell strain #5-1 and the cancer cells HL-60; assay: Adhesion inhibition of [35S]methionine-labeled HL-60 cancer cells to cell-lined intravascular endothelial cell strain #5-1 (FIGS. 9(a), 9(b)); assay type: cell-based, human; settings: at a concentration at which the Ia or Ib sugar chain exhibited adhesion inhibiting activity
Procedure: (4) Next, how much adhesion of the cancer cell to the intravascular endothelial cells thus cultivated was inhibited by the addition of the sugar chain obtained above to the intravascular endothelial cells was examined. First, intravascular endothelial cells were placed on one plane of a 96-well plate, and appearance of E-selectin was induced by adding interleukin-1β to the cells. The cultivation for about 3 hours made E-selectin appear. The Ia type or Ib type sugar chain was added to it, and 1×10^4 cancer cells labeled with [^35 S] methionine were added to it, and the mixture was left at 37° C. for 30 minutes as it was. Thereafter, the mixture was immersed in and washed with PBS, and those cancer cells not adhered were washed off. The cells were recovered by adding 100 μl of a 0.1 N aqueous solution of sodium hydroxide to each of the 96-well plates, and a residual radioactivity value was measured by using a liquid scintillation counter.

E-selectin = E-selectin appearance on intravascular endothelial cells by fluorescent microscopy with E-selectin antibody (FIG. 7); assay type: cell-based; settings: interleukin-1β added (FIGS. 7(a), 7(b)) vs not added; human normal cells and strain #5
Procedure: FIGS. 7(a) through 7(d) are microphotographs obtained by photographing with a fluorescent microscope to confirm whether E-selectin was produced or not at the surfaces of the intravascular endothelial cells, through coloring the human normal intravascular endothelial cells and the cell-lined human intravascular endothelial cell strains #5 with E-selectin antibody. As compared with cases in which no interleukin-1β was added (FIGS. 7(c) and 7(d)), it is clear that appearance of E-selectin was induced in cases where interleukin-1β was added (FIGS. 7(a) and 7(b)).

[2] = system: adhesion of the cancer cells HL-60 to the intravascular endothelial cells; assay: Microscopic observation of adhesion of HL-60 cancer cells to intravascular endothelial cells (FIG. 8); assay type: cell-based, human; settings: interleukin-1β added (FIG. 8b) vs not added (FIG. 8a)
Text: Slender, large cells are intravascular endothelial cells, and whitish, bright, round cells are cancer cells HL-60.

## colominic acid
[1]
  adhesion inhibiting activity: not almost exhibited

## interleukin-1β: added to the cells to induce appearance of E-selectin
E-selectin
  appearance of E-selectin: induced
[2]
  adhesion of the cancer cells to the intravascular endothelial cells (microphotographs): more conspicuous
